Experimental data: patent US9895344B2, “Treating various disorders with 7,8-dihydroxyflavone and derivatives thereof” (EMORY UNIVERSITY, priority 2008, dated 2018)

Assays:
immobility time = experiment: Forced swim test in TrkB F616A knockin mice with saline or 1NMPP1 pretreatment; assay type: in vivo; conditions: 1NMPP1 25 μM in drinking water
Description: To assess whether the behavior responses by 7,8-DHF and its derivative are mediated by TrkB receptor, TrkB F616A knockin mice were utilized. The transgenic mice were subjected to saline or 1NMPP1 pretreatment (25 μM), respectively (drinking water provided one day prior to drug injection and maintained throughout whole experiment). The control and/or drugs were provided for five days. […] (Data presented in FIGS. 34, 35, and 36 as mean±SEM; *p<0.05 against vehicle, #P<0.01 against vehicle and ***P<0.0001 against vehicle, student t-test.)

Akt and Erk1/2 = Akt and Erk1/2 activation in cortical neurons from TrkB F616A knockin mice; assay type: cell-based; conditions: inhibitor 100 nM
Description: (§1) To explore whether the neuroprotective action of 7,8-dihydroxyflavone is dependent on TrkB activation in vivo, TrkB F616A knockin mice were used. […] To further assess whether 7,8-dihydroxyflavone can mimic BDNF, cortical neurons were prepared from TrkB F616A knockin mice. The cortical neurons were pretreated for 30 minutes with either K252a Trk tyrosine kinase inhibitor (100 nM) or 1NMPP1 inhibitor (100 nM) followed by 0.5 μM 7,8-dihydroxyflavone for 30 minutes.

TrkB F616A = target: T1, TrkB F616A (Mus musculus, UniProt P15209, F616A); experiment: TrkB phosphorylation in cortical neurons from TrkB F616A knockin mice; assay type: cell-based; conditions: inhibitor 100 nM, pretreated 30 minutes
T1 construct: endogenous in cells; host or cells: cortical neurons of TrkB F616A knock-in mice
Description: as §1

KA-provoked apoptosis = experiment: KA-provoked neuronal cell death in TrkB F616A knockin mice, intraperitoneal (caspase-3 immunoblot); assay type: in vivo
Description: To determine if 1NMPP1 would make neurons treated with 7,8-dihydroxyflavone vulnerable to KA-provoked neuronal cell death, TrkF616A knockin mice were fed with 1NMPP1 (25 mM) in drinking water one day prior to pharmacological reagent treatment. The next day, the mice were intraperitoneally injected with KA (25 mg/kg), or 7,8-dihydroxyflavone (5 mg/kg) 4 hours prior to KA injection. The control mice were injected with either KA or 7,8-dihydroxyflavone alone, or the mice were administered 7,8-dihydroxyflavone 4 hours before KA. In 4 days, the mice were sacrificed and the brains were homogenated and ultracentrifuged. The supernatant was employed for SDS-PAGE and immunoblotting analysis.

TrkB [1] = target: T2, TrkB (Rattus norvegicus, UniProt Q63604); experiment: TrkB activation in primary cortical neurons (p-TrkB Y817 immunoblotting); assay type: cell-based; design: endogenous in cells; host or cells: primary cortical neurons; conditions: 500 nM, 30 min, FIG. 27 left
Description: Primary cultured rat cortical neurons were prepared as follows. E17 rat pups were decapitated and cortex was extirpated, cross chopped, and suspended by pipetting for separation in 5% fetal calf serum (FCS), 5% horse serum (HS) DMEM. The cell suspension was then centrifuged at 250×g for 5 minutes. This operation was repeated again. Cells were seeded into polyethyleneimine-coated 10 cm^2 dishes and 12-well plates including coated-coverslips and incubated at 37° C. in 5% CO2/95% air. After 3 hours, the culture medium was changed to Neurobasal containing B-27 supplement (Invitrogen; Carlsbad, Calif.) and incubated for 4 days. For maintenance, half of the culture medium was changed to fresh Neurobasal/B27 every 4 days. After 1 week, the dished cultured neurons were ready for use.
To compare the TrkB activation by the synthetic compounds of Examples 9 and 10 (see FIG. 26), primary cortical cultures were prepared. The cortical neurons were treated with 500 nM of various compounds for 30 min and collected the cell lysates. […] Replacing the H-bond acceptor O atom with hydrogen bond donor NH reduced its stimulatory effect. […] In comparison, 7,8-DHF provoked TrkB activation with the minimal concentration of 100 nM (FIG. 27, right panels).
Target sequence in this assay (Q63604 32-821): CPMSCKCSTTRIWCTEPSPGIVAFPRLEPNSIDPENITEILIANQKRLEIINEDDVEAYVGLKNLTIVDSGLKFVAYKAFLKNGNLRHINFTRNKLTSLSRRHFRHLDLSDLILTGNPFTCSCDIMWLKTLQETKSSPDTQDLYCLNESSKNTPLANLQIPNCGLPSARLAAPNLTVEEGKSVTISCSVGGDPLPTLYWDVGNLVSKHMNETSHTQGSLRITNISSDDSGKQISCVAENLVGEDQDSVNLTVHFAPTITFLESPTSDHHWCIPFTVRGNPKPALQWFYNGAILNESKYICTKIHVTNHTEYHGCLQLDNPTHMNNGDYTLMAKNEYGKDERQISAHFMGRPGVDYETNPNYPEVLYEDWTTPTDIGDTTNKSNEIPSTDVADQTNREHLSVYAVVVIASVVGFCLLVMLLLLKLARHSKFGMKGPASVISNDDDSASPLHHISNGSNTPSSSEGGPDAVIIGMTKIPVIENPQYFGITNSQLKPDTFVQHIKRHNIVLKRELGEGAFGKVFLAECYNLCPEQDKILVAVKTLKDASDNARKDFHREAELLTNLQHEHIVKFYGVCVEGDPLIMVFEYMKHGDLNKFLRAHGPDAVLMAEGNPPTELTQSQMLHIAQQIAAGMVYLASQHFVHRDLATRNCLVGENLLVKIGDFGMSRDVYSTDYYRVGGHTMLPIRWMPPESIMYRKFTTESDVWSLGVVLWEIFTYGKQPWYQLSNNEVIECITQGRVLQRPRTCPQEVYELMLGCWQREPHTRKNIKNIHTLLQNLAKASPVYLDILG

Erk = experiment: Western analysis of Erk phosphorylation in hippocampal neurons; assay type: cell-based; conditions: FIG. 9
Description: (§2) To further examine whether 7,8-dihydroxyflavone can stimulate TrkB-mediated downstream signaling cascades, Western analysis was performed.
(§3) To probe the time course of 7,8-dihydroxyflavone triggered TrkB activation, hippocampal neurons were treated with 7,8-dihydroxyflavone at 500 nM and phosphorylation of Erk and Akt was determined over time by Western analysis. […] Stimulation of Erk and Akt by 7,8-dihydroxyflavone also occurred in a dose dependent manner.

hippocampal neurons = experiment: Glutamate-triggered apoptosis in hippocampal neurons; assay type: cell-based; conditions: pretreated 30 minutes, 50 μM glutamate for 16 hours, compared with BDNF, FIG. 6
Description: To examine whether these compounds could promote neuronal survival, hippocampal neurons were prepared and the cultures were pretreated with various flavone derivatives for 30 minutes, followed by treatment with 50 μM glutamate for 16 hours.

T48 cells = experiment: Fluorescent apoptotic assay (Staurosporine, MR(DEVD)2) in TrkB stably transfected T48 cells; assay type: cell-based, murine; conditions: for EC50: Mus musculus, T48 cells, FIG. 5, read-out: effective concentration at which 50% (EC50) of the cells are protected from apoptosis; for suppression of apoptosis in T48 cell line: Staurosporine-induced apoptosis, FIG. 1B and FIG. 4
Description: Create and test reporter cell lines. In order to identify small molecules that mimic BDNF and activate TrkB, TrkB stably transfected murine cell lines were created. The T48 and T62 cell lines were created by transfecting basal forebrain SN56 cells, which express negligible TrkB, with a TrkB expression construct. […] To test resistance to apoptosis, SN56 cells and the T48 cell line were either untreated or treated with BDNF, and then subjected to an apoptotic assay. Briefly, the cells were treated with 0.75 μM Staurosporine for 9 hours, and 1 hour before the termination of the experiment, the cells were treated with 10 μM MR (DEVD)2. The cells were then fixed with 4% paraformaldehyde for 15 minutes, washed with phosphate buffered saline (PBS), and incubated with Hoechst 33342 for 10 minutes. Cover slides were washed with PBS, mounted, and the cells were examined using a fluorescent microscope to see which cells turned red upon caspase cleavage.
Cell-based screen. To screen a large number of chemicals, a cell-based apoptic assay was developed using a cell permeable fluorescent dye, MR (DEVD)2, which turns red upon caspase cleavage in apoptotic cells. SN56 and T48 cells were plated at 10,000 cells per well in multiple 96-well plates and exposed to 2000 biologically active compounds from the Spectrum Collection Library for 30 minutes at a concentration of 10 μM in DMSO. Following exposure to the compounds, the cells were subjected to the developed fluorescent apoptotic assay described above (method schematically shown in FIG. 2).
In the initial screen, 5 of the 66 positive compounds were flavone derivatives or similar compounds. […] To compare the apoptosis inhibitory activity, the flavone derivatives were preincubated with SN56 and T48 cells, and subsequently were subjected to the fluorescent apoptotic assay as described above. […] Additionally, the effective concentration at which 50% (EC50) of the cells are protected from apoptosis was determined for 7,8-dihydroxyflavone, Cianidanol, Pinocembrin and Diosmetin.

Caspase-3 activation = experiment: Glutamate-provoked Caspase-3 activation in wild-type and TrkB-/- cortical neurons; assay type: cell-based, mice; conditions: control compounds, FIG. 21
Description: To determine whether 7,8-dihydroxyflavone can selectively activate TrkB receptor and prevent neuronal cell death, cortical neurons were prepared from homozygous pups of TrkB+/−mice, which were mated to the same genotype. […] Glutamate nonselectively elicited weak TrkA phosphorylation in both wild-type and TrkB-null neurons (FIG. 21, row 3).

Akt = experiment: Western analysis of Akt phosphorylation in hippocampal neurons; assay type: cell-based; conditions: FIG. 9
Description: as §2, §3

TrkB [2] = target: T2, TrkB; experiment: TrkB receptor dimerization in cotransfected HEK293 cells (GST pull-down); assay type: cell-based; design: expressed in transfected cells; host or cells: HEK293
Description: BDNF is known to bind the TrkB receptor and provoke its dimerization (Barbacid, J. Neurobiol., 25:1386-1403, 1994; Klein et al, Cell, 66:395-403, 1991). To explore whether 7,8-dihydroxyflavone triggers TrkB receptor dimerization, HEK293 cells were cotransfected with GST-TrkB and HA-TrkB or HA-TrkA. The cells were then treated with BDNF or small flavone compounds (0.5 μM) for 30 minutes. The cells were harvested, washed once in PBS, and lysed in 1 ml lysis buffer (50 mM Tris, ph 7.4, 150 mM NaCl, 1 mM EDTA, 0.5% Triton X-100, 1.5 mM Na3VO4, 50 mM NaF, 10 mM sodium pyrophosphate, 10 mM sodium β-glycerophosphate, 1 mM phenylmethylsulfonyl fluoride (PMSF), 5 mg/ml aprotinin, 1 mg/ml leupeptin, 1 mg/ml pepstatin A) and centrifuged for 10 minutes at 14,000×g at 4° C. The supernatant was transferred to a fresh tube and transfected TrkB receptor was separated from the supernatant with glutathione beads, and the coprecipitated proteins were resolved on SDS-PAGE.
Target sequence in this assay (Q63604 32-821): as above
Target sequence in this assay (Q63604 32-821): as above

T1 sequence (P15209 32-821 F616A): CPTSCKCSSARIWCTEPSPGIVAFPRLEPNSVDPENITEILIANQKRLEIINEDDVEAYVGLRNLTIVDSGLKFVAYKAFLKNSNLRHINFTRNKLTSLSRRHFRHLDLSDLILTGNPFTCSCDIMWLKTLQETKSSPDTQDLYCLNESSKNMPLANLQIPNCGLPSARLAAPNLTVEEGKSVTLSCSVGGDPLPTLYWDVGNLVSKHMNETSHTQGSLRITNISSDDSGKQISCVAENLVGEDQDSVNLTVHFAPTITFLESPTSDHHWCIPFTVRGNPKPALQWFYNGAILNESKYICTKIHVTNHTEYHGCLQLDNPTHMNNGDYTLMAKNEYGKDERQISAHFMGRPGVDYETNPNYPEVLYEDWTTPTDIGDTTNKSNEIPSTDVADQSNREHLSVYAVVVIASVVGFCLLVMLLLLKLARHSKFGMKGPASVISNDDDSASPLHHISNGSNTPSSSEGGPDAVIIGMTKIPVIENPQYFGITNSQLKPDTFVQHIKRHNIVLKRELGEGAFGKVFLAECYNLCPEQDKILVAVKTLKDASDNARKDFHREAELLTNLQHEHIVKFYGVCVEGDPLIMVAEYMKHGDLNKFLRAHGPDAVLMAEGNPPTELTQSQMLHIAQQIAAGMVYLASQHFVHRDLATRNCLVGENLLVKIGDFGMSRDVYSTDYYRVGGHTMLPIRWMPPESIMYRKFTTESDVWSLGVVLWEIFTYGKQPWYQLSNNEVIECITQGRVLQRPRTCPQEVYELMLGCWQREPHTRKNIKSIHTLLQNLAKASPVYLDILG

Molecule: CC(C)(C)n1nc(Cc2cccc3ccccc23)c2c(N)ncnc21 [1NMPP1]
- immobility time, 1NMPP1 treated versus saline control groups (immobility time): No significant difference
- blocking of BDNF-triggered Akt and Erk1/2 activation (Akt and Erk1/2): blocked
- effect on Akt activation by 7,8-dihydroxyflavone (Akt and Erk1/2): partially decreased Akt activation
- effect on Erk1/2 activation by 7,8-dihydroxyflavone (Akt and Erk1/2): failed to inhibit Erk1/2 activation
- blocking of BDNF-provoked TrkB phosphorylation (TrkB F616A): selectively blocked
- blocking of 7,8-dihydroxyflavone-provoked TrkB phosphorylation (TrkB F616A; 0.5 μM 7,8-dihydroxyflavone): selectively blocked
- effect of pretreatment on KA-provoked apoptosis (KA-provoked apoptosis; 1NMPP1 in drinking water): elevated KA-provoked apoptosis
- apoptosis in TrkB F616A mice, treatment alone without KA (KA-provoked apoptosis; FIG. 24): no effect on apoptosis

Molecule: Br.O=c1cc(-c2ccc(F)cc2)[nH]c2c(O)c(O)ccc12 [2-(4-fluorophenyl)-7,8-dihydroxyquinolin-4(1H)-one.HBr]
- TrkB activation (TrkB [1]): did not provoke the same level of TrkB activation

Molecule: Br.O=c1cc(-c2cncnc2)oc2c(O)c(O)ccc12 [7,8-dihydroxy-2-(pyrimidin-5-yl)-4H-chromen-4-one.HBr]
- TrkB activation (TrkB [1]): robustly provoked TrkB activation

Molecule: Br.O=c1cc(-c2ccccc2)[nH]c2c(O)c(O)ccc12 [7,8-dihydroxy-2-phenylquinolin-4(1H)-one, 7,8-dihydroxy-2-phenylquinolin-4(1H)-one.HBr]
- TrkB activation (TrkB [1]): did not provoke the same level of TrkB activation

Molecule: Oc1cc(O)c2c(c1)O[C@H](c1ccc(O)c(O)c1)[C@@H](O)C2 [Cianidanol]
- Erk activation (Western) (Erk): activated
- protection of hippocampal neurons from glutamate-induced apoptosis (hippocampal neurons): comparable anti-apoptosis activity as BDNF
- EC50 (T48 cells): 100 nM
- suppression of apoptosis in T48 cell line (T48 cells): strongly suppressed apoptosis

Molecule: COc1ccc(-c2cc(=O)c3c(O)cc(O)cc3o2)cc1O [Diosmetin, reference compound]
- Erk activation (Western) (Erk): activated
- caspase-3 activation in both wild-type and TrkB-/- neurons (Caspase-3 activation): non-selectively suppressed caspase-3 activation in both neurons
- Akt activation (Western) (Akt): activated
- protection of hippocampal neurons from glutamate-induced apoptosis (hippocampal neurons): only slightly protected neurons
- EC50 (T48 cells): 500 nM
- suppression of apoptosis in T48 cell line (T48 cells): strongly suppressed apoptosis

Molecule: Oc1ccc([C@H]2Oc3cc(O)cc(O)c3C[C@H]2O)cc1 [Epiafzelechin]
- protection of hippocampal neurons from glutamate-induced apoptosis (hippocampal neurons): only slightly protected neurons
- suppression of apoptosis in T48 cell line (T48 cells): failed to suppress apoptosis

Molecule: Oc1ccc2c(c1)O[C@H](c1ccc(O)c(O)c1)[C@@H](O)C2 [Fisetinidol]
- protection of hippocampal neurons from glutamate-induced apoptosis (hippocampal neurons): no effect
- suppression of apoptosis in T48 cell line (T48 cells): failed to suppress apoptosis

Molecule: CC1=CC(=O)c2ccccc2C1=O [Menadione]
- protection of hippocampal neurons from glutamate-induced apoptosis (hippocampal neurons): comparable anti-apoptosis activity as BDNF
- suppression of apoptosis in T48 cell line (T48 cells): strongly suppressed apoptosis

Molecule: O=C1C[C@@H](c2ccccc2)Oc2cc(O)cc(O)c21 [Pinocembrin, reference compound]
- Erk activation (Western) (Erk): activated
- caspase-3 activation in both wild-type and TrkB-/- neurons (Caspase-3 activation): non-selectively suppressed caspase-3 activation in both neurons
- TrkB dimerization (TrkB [2]; GST-TrkB and HA-TrkB, 0.5 μM, 30 minutes, FIG. 14): failed
- protection of hippocampal neurons from glutamate-induced apoptosis (hippocampal neurons): comparable anti-apoptosis activity as BDNF
- EC50 (T48 cells): 100 nM
- suppression of apoptosis in T48 cell line (T48 cells): strongly suppressed apoptosis

Molecule: O=c1c(O)c(-c2ccc(O)c(O)c2)oc2cc(O)cc(O)c12 [Quercetin, reference compound]
- Erk activation (Western) (Erk): activated

B1: BDNF: brain-derived neurotrophic factor, positive control, from Roche (protein, UniProt P23560 19-247, looked up)
Neurotrophic factor BDNF …: APMKEANIRGQGGLAYPGVRTHGTLESVNGPKAGSRGLTSLADTFEHVIEELLDEDQKVRPNEENNKDADLYTSRVMLSSQVPLEPPLLFLLEEYKNYLDAANMSMRVRRHSDPARRGELSVCDSISEWVTAADKKTAVDMSGGTVTVLEKVPVSKGQLKQYFYETKCNPMGYTKEGCRGIDKRHWNSQCRTTQSYVRALTMDSKKRIGWRFIRIDTSCVCTLTIKRGR
- dimerization of TrkB with TrkA receptor (TrkB [2]; GST-TrkB and HA-TrkA cotransfected): failed to dimerize with TrkA receptor
- suppression of apoptosis in T48 cell line (T48 cells): decreased apoptosis
